For one compound, IC50 results are on record in BindingDB's records for doi:10.1016/s0960-894x(98)00091-2 (Eli Lilly, 1999).

The structures appear in SMILES notation.

In general, IC50 refers to the concentration that inhibits the measured activity by half. A high value points to weaker potency in that assay.

In the assay the target is NMDA receptor (Rattus norvegicus). Description: Binding affinity against Ionotropic glutamate receptor using [3H]- CGS-19755 displacement from rat forebrain preparations.

The compound `N[C@@H](C[C@H](CCC(c1ccccc1)c1ccccc1)C(=O)O)C(=O)O` [(2S,4S)-2-Amino-4-(3,3-diphenyl-propyl)-pentanedioic acid] displayed an IC50 of 13.2 µM.
